Experiments:
[1] = tested on: 293-GCC#2 tumors; assay: PK/PD study (phospho-histone H3) in 293-GCC#2 tumor bearing mice; format: in vivo
Source text: Phospho-histone H3 was detected by antibody (Upstate Biotechnology, now Millipore, Billerica, Mass.) staining of paraffin embedded sections of tumors.

[2] = tested on: PHTX-215 Pa s.c. xenograft; assay: 5F9 vcMMAE and gemcitabine in PHTX-215 Pa s.c. xenografts (Study CPGC-13-EF10); format: in vivo, CB-17 SCID mice; details: PHTX-215 Pa s.c. xenograft, CB-17 SCID mice, reference vehicle
Procedure: (§1) Day D0 was the first day of treatment.
(§2) Tumor volume was calculated using the formula: […]
Table 77A the annotation table for group symbols. […] A negative dAUC is interpreted as an increase in AUC relative to the reference. It is important to evaluate not only the P value, but also the dAUC. Comparisons with significant P values, but small dAUC values, may not be of interest.

[3] = tested on: PHTX-09c s.c. xenograft; assay: 5F9 vcMMAE and CPT-11 in PHTX-09C s.c. xenografts (Study CPGC-11-EF07); details: for Days to 1000 mm^3 / Mean tumor volume ± S.E.M (mm3) / T/C / TGI: PHTX-09c
Procedure: The endpoints for each treatment group was either a) tumor volume reaches 10% body weight; or b) body weight loss of >20%. The projected tumor volume at the study initiation date was 200 mm^3.
Not greater than one day prior to dosing, all animals were weighed to the nearest gram and grouped. Dosing solutions were vortexed prior to each administration to ensure correct delivery of compound. Animals received approximately 0.1 ml doses administered I.V. using a 1 cc syringe, 25-30 gauge, ½-¾ inch in length. Animals were dosed based on an average body weight of 20 grams.
Tumor volume measurements were obtained twice per week using Vernier calipers (0.01 mm). Tumor volume was calculated using the formula:
Efficacy was evaluated in terms of % tumor growth inhibition (TGI) and tumor growth delay (TGD). TGI was assessed on an arbitrary day (when the maximum tumor volume (MTV of the control treatment group reaches the maximum allowable tumor volume), using the following formula:
TGD was assessed by calculating T−C, where T=mean time (in days) for treatment group tumors to reach a predetermined size, and where C=mean time (in days) for the control group tumors to reach a predetermined size (e.g., 1,000 mm^3).
To compare pairs of treatment groups, the following mixed-effects linear regression model was fit to the data using the maximum likelihood method:
The −2 log likelihood of the full model was compared to one without any treatment terms (reduced model) and the difference in the values was tested using a Chi-squared test. The degrees of freedom of the test were calculated as the difference between the degrees of freedom of the full model and that of the reduced model. The predicted differences in the log tumor values (Yijk−Yi0k, which can be interpreted as log10 (fold change from day 0)) were taken from the above models to calculate mean AUC values for each treatment group. A dAUC value was then calculated as:
For synergy analyses, the observed differences in the log tumor values were used to calculate AUC values for each animal. […] The AUC for the control, or vehicle, group was calculated using the predicted values from the pairwise models described above. To address the question of whether the effects of the combination treatments were synergistic, additive, or sub-additive relative to the individual treatments, the following statistics were calculated:
where Ak and Bk are the k^th animal in the individual treatment groups and ABk is the k^th animal in combination treatment group. AUCctl is the model-predicted AUC for the control group and was treated as a constant with no variability. […] The standard error of the synergy score was calculated as the square root of the sum of squared standard errors across groups A, B, and AB. The degrees of freedom were estimated using the Welch-Satterthwaite equation. P values were calculated by dividing the synergy score by its standard error and tested against a t-distribution (two-tailed) with the above-calculated degrees of freedom.

[4] = tested on: CTG pancreatic PHTX models (Champions Oncology); assay: Single-agent 5F9 vcMMAE in Champions CTG pancreatic PHTX models; format: in vivo, mice
Source text: The purpose of this study was to evaluate in vivo anti-tumor activity induced by combined administration of the 5F9 vcMMAE immunoconjugate (sometimes referred to herein as “MLN0264”) and gemcitabine in mouse xenograft primary human tumor explants (PHTX models of pancreatic cancer. These models included tumor tissue from patients with wild-type and mutant KRAS. Five pancreatic PHTX were generated by Champions Oncology (Hackensack, N.J.) using their CTG platform. 2 PHTX models were developed in-house. GCC expression was evaluated in each of the 7 PHTX models using the automated IHC assay described above.
In vivo anti-tumor studies of single-agent 5F9 vcMMAE immunoconjugate was conducted in all seven of the pancreatic subcutanreous xenograft mouse models. Animals were administered vehicle, free MMAE at 0.135 mg/kg once weekly (QW), a non-GCC targeting ADC at 7.5 mg/kg QW, or 5F9 vcMMAE at 3.75 or 7.5 mg/kg QW. The results for single agent activity of the immunoconjugate in PHTX-215 Pa and PHTX-249 Pa models is shown in FIGS. 15A and 15B, respectively.

[5] = tested on: PHTX-249 Pa s.c. xenograft; assay: 5F9 vcMMAE and gemcitabine in PHTX-249 Pa s.c. xenografts (Study CPGC-13-EF08); format: in vivo, CB-17 SCID mice
Procedure: 264.4 ul stock Gemcitabine into 3135.6 ul NS.
as §1, §2
A negative dAUC is interpreted as an increase in AUC relative to the reference. It is important to evaluate not only the P value, but also the dAUC. Comparisons with significant P values, but small dAUC values, may not be of interest.

5F9 vcMMAE: 5F9 mAb conjugated to MMAE using a vc (Val-Cit) linker; average drug loading about 3.6
Average % Tumor cells pH 3 positive ([1]; single iv dose 75 μg/kg, 1 hr): 4.525%
Average % Tumor cells pH 3 positive ([1]; single iv dose 75 μg/kg, 4 hr): 2.552%
Average % Tumor cells pH 3 positive ([1]; single iv dose 75 μg/kg, 8 hr): 4.244%
Average % Tumor cells pH 3 positive ([1]; single iv dose 75 μg/kg, 24 hr): 9.8199%
Average % Tumor cells pH 3 positive ([1]; single iv dose 75 μg/kg, 48 hr): 8.692%
Average % Tumor cells pH 3 positive ([1]; single iv dose 75 μg/kg, 96 hr): 8.628%
Average % Tumor cells pH 3 positive ([1]; single iv dose 150 μg/kg, 1 hr): 3.335%
Average % Tumor cells pH 3 positive ([1]; single iv dose 150 μg/kg, 4 hr): 2.785%
Average % Tumor cells pH 3 positive ([1]; single iv dose 150 μg/kg, 8 hr): 4.576%
Average % Tumor cells pH 3 positive ([1]; single iv dose 150 μg/kg, 24 hr): 13.79%
Average % Tumor cells pH 3 positive ([1]; single iv dose 150 μg/kg, 48 hr): 14.26%
Average % Tumor cells pH 3 positive ([1]; single iv dose 150 μg/kg, 96 hr): 14.68%
dAUC (percent decrease in treatment AUC relative to reference group V, vehicle) ([2]; group A: MLN0264 3.75 mg/kg IV QW): 36.3%
dAUC (percent decrease in treatment AUC relative to reference group V, vehicle) ([2]; group B: MLN0264 7.5 mg/kg IV QW): 75.1%
single agent activity ([3]; PHTX-09c (FIGS. 8B and 8C)): strong
Days to 1000 mm^3 ([3]; ML0264 1.875 mg/kg i.v. QW ×3): >23 days
Mean tumor volume ± S.E.M (mm3) ([3]; ML0264 1.875 mg/kg i.v. QW ×3): 888.5 ± 126.2 mm3
T/C ([3]; ML0264 1.875 mg/kg i.v. QW ×3): 0.82
TGI ([3]; ML0264 1.875 mg/kg i.v. QW ×3): 18.1%
Days to 1000 mm^3 ([3]; ML0264 3.75 mg/kg i.v. QW ×3): >23 days
Mean tumor volume ± S.E.M (mm3) ([3]; ML0264 3.75 mg/kg i.v. QW ×3): 861.1 ± 155.9 mm3
T/C ([3]; ML0264 3.75 mg/kg i.v. QW ×3): 0.79
TGI ([3]; ML0264 3.75 mg/kg i.v. QW ×3): 20.6%
dAUC ([3]; Treated group A (ML0264 1.875 mg/kg) vs reference V (vehicle), percent decrease in AUC): 16.1%
dAUC ([3]; Treated group B (ML0264 3.75 mg/kg) vs reference V (vehicle)): 25.4%
TGI, % ([4]; model CTG-0300, KRAS Mut G12V, QWx5, day 28): 64%
TGI, % ([4]; model CTG-0301, KRAS wild-type, QWx3, day 21): 24%
TGI, % ([4]; model CTG-0302, KRAS Mut G12R, QWx3, day 21): 36%
TGI, % ([4]; model CTG-0303, KRAS wild-type, QWx5, day 38): 45%
TGI, % ([4]; model CTG-0492, KRAS Mut G12V, QWx3, day 21): 62%
tumor regressions (animals) ([5]; PHTX-249 Pa (Studies CPGC-13-EF05/EF08), 5F9 vcMMAE 7.5 mg/kg, gemcitabine 15 mg/kg on days 1 and 3, alone or combined): no tumor regressions
dAUC ([5]; group A: MLN0264 7.5 mg/kg QW, reference vehicle): 28.9%

Source: patent publication US20140356383A1, “ADMINISTRATION OF AN ANTI-GCC ANTIBODY-DRUG CONJUGATE AND A DNA DAMAGING AGENT IN THE TREATMENT OF CANCER” (priority 2013, published 2014)
